Reference: ChEMBL document CHEMBL1201862, “PubChem BioAssay data set” (2004)
Activity calls are given as the source filed them.

Experiments:
[1] = reduction of Shn3 3'UTR firefly luciferase signal, dose response, Schnurri-3 inhibitor project, cell-based, Clone20 osteoblasts, cherry-pick, set 2 (AID 720490); assay type: functional;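 also: actives lower the luminescence signal as inhibitors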
cells [2] = assay type: functional, cell-based
[3] = Shn3 3'UTR reporter inhibitors, dose response, cell-based, Clone20 osteoblasts, firefly luciferase, cherry-picked (AID 624132); assay type: functional;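 also: firefly luciferase luminescence from reporter carrying the Shn3 3'UTR in osteoblasts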
[4] = control 3'UTR Renilla luciferase suppression, dose response, counter-screen for Shn3 inhibitor project, cell-based, Clone20-Shn3RL, cherry-picked (AID 624133); assay type: functional
[5] = HepG2 cell cytotoxicity, dose response, cytotoxicity control for Shn3 inhibitor project, CellTiter-Glo, cherry-picked (AID 624134); assay type: functional, cell-based
[6] = reduction of endogenous Shn3 mRNA, dose response, qPCR, Clone20 cells, cherry-pick (AID 743415); assay type: functional, cell-based
[7] = inhibitors of control Renilla luciferase reporter, dose response, counter-screen for Shn3 3'UTR targeting project, Clone20-Shn3RL cells, dual-Glo, cherry-pick, set 2 (AID 720724); assay type: functional, cell-based; conditions: Dual-Go Shn3RL
cells [8] = assay type: functional, cell-based; remark: listed apart in the source
[9] = HEK293T cytotoxicity, dose response, cytotoxicity control for miR-122 modulator project, cell-based, inhibitor set, cherry-pick, set 2 (AID 720697); assay type: functional
[10] = HEK293T cytotoxicity, dose response, cytotoxicity control for miR-122 modulator project, cell-based, activator set, cherry-pick (AID 720690); assay type: functional;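 also: HEK293T human cells scored for general mammalian cytotoxicity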
[11] = miR-122 activators in hepatoma reporter cells, dose response, cell-based, Huh7 psiCHECK-miR122, Renilla luciferase, cherry-picked (AID 651956); assay type: functional;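 also: huh7 hepatoma cells stably carrying a psiCHECK-2 miR-122 sensor plasmid; renilla luciferase signal reporting endogenous miR-122 activity after 48 h compound exposure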
[12] = P. falciparum Dd2 growth inhibitors, dose response, SYBR Green, cherry-picked samples (AID 1159567); assay type: functional, cell-based
[13] = A2780 ovarian cancer cell cytotoxicity, dose response, cytotoxicity control, plate reader, dry powder samples (AID 743046); assay type: functional, cell-based
[14] = inhibitors of CMV-promoter luciferase reporter, dose response, counter-screen for Pax8 inhibitor project, cell-based, HEK293, luminescence, dry powder (AID 743020); assay type: functional
[15] = NIH:OVCAR-3 ovarian cancer cell cytotoxicity, dose response, PAX8 inhibitor project, plate reader, dry powder samples (AID 743044); assay type: functional, cell-based
Paired box protein Pax-8 = Paired box protein Pax-8 (Homo sapiens, UniProt Q06710); assay: inhibitors of PAX8-driven TPO luciferase reporter, dose response, RMG-I cells, cherry-pick (AID 687027); assay type: functional, cell-based;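 also: luciferase reporter driven by Pax8 target thyroperoxidase promoter measured by SteadyGlo luminescence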
Paired box protein Pax-8, sequence (Q06710 whole entry): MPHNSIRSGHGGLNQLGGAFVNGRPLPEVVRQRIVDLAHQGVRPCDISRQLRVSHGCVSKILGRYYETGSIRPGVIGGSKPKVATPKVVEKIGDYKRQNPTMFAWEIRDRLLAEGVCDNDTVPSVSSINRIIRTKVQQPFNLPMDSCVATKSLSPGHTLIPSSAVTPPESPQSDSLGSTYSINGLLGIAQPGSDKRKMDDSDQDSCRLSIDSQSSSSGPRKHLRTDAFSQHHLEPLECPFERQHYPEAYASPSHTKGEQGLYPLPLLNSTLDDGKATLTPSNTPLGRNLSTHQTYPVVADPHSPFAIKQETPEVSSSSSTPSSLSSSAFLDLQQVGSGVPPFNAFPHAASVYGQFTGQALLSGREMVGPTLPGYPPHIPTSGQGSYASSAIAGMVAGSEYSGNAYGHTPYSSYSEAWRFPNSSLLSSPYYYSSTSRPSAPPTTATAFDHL

[16] = cytotoxicity in OVCAR8 ovarian cancer cells, dose response, PAX8 project, cell-based, plate reader, dry powder samples (AID 743197); assay type: functional; conditions: OVCAR-8
[17] = IGROV1 ovarian cancer cell cytotoxicity, dose response, PAX8 inhibitor project, plate reader, dry powder samples (AID 743043); assay type: functional, cell-based; conditions: IGROV-1
[18] = P. falciparum Dd2 growth inhibitors, dose response, SYBR Green, dry powder samples (AID 1159566); assay type: functional, cell-based;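 also: potency for growth inhibition with lower SYBR green DNA signal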
[19] = A549 cell cytotoxicity, dose response, cytotoxicity control, plate reader, cherry-pick, antagonist series (AID 743412); assay type: functional, cell-based
[20] = HEK293 cell cytotoxicity, dose response, cytotoxicity control, plate reader, cherry-picked samples (AID 743446); assay type: functional, cell-based
[21] = LGR2 antagonists, dose response, cell-based, HEK293, CRE-luciferase reporter, cherry pick, set 2 (AID 743343); assay type: functional;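 also: transfected cells were stimulated with diluted bursicon conditioned medium after compound addition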
[22] = P. falciparum 3D7-ScDHODH growth inhibitors, dose response, SYBR Green, dry powder samples (AID 1159570); assay type: functional, cell-based;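 also: parasite growth measured after 72 hours of compound exposure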
[23] = HepG2 cell cytotoxicity, dose response, cytotoxicity control, plate reader, cherry-pick, antagonist series (AID 743416); assay type: functional, cell-based
[24] = P. falciparum ATP4 D1247Y mutant growth inhibitors, dose response, NITD609-resistant line, SYBR Green, dry powder (AID 1159571); assay type: functional, cell-based;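 also: parasites synchronized at ring stage by sorbitol before testing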
[25] = IOSE-T80 ovarian epithelial cell cytotoxicity, dose response, cytotoxicity control for PAX8 inhibitor project, plate reader, dry powder samples (AID 743045); assay type: functional, cell-based
[26] = HepG2 cell cytotoxicity, dose response, cytotoxicity control, plate reader, dry powder samples (AID 1159569); assay type: functional, cell-based;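 also: inhibitor potency with signal falling toward the positive control level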
[27] = MC4R antagonists, dose response, counter-screen for LGR2 antagonist project, cell-based, plate reader, cherry pick (AID 743444); assay type: functional;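 also: transfected HEK 293 cells stimulated with alpha-MSH peptide; potency of inhibitors of the alpha-MSH evoked signal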
[28] = HepG2 cell cytotoxicity, dose response, cytotoxicity control, luminescence plate reader, powder samples, set 2 (AID 651860); assay type: functional, cell-based
[29] = biological target: Endoplasmic reticulum aminopeptidase 1 (Homo sapiens, UniProt Q9NZ08); assay: ERAP1 aminopeptidase inhibitors, dose response, biochemical, cherry-pick, set 2, plate reader (AID 743314)
Endoplasmic reticulum aminopeptidase 1, sequence (Q9NZ08 whole entry): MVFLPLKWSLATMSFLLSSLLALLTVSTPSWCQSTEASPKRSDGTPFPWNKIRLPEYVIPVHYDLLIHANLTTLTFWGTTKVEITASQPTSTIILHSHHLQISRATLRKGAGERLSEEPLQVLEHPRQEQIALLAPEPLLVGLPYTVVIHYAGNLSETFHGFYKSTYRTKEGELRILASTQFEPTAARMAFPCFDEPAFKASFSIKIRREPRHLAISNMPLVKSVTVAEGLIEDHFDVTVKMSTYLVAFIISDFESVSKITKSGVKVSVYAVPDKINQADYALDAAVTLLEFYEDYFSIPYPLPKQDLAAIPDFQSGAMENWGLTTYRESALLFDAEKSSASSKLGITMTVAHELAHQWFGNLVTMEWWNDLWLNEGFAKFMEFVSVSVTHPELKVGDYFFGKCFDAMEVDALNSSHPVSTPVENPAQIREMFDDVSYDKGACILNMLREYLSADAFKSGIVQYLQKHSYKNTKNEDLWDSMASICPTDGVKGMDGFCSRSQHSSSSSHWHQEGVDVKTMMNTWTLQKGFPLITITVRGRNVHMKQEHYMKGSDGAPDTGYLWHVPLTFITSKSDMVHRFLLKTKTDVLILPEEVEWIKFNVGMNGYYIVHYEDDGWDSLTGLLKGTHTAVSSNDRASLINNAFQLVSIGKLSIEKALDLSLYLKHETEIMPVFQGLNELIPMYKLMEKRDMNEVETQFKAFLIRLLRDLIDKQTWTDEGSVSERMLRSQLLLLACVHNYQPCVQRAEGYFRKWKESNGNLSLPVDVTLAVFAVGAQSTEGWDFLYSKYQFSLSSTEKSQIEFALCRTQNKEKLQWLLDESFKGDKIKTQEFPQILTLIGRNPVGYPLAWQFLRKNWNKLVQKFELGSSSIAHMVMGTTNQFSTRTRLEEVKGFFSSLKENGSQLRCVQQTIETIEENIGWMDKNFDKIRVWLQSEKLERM

[30] = Late stage assay provider results from the probe development effort to identify selective inhibitors of heat shock protein 90 (HSP90): Absorbance-based cell proliferation assay in MCF7 cells.; assay type: functional
[31] = Late stage assay provider results from the probe development effort to identify selective inhibitors of heat shock protein 90 (HSP90): Absorbance-based cell proliferation assay in SKBR3 cells.; assay type: functional; conditions: SK-BR-3
[32] = biological target: Potassium channel subfamily K member 3 (Homo sapiens, UniProt O14649); assay: TASK1 (KCNK3) potassium channel inhibitors, SAR follow-up, CHO cells, FluxOR thallium flux (AID 652212); assay type: functional
Potassium channel subfamily K member 3, sequence (O14649 whole entry): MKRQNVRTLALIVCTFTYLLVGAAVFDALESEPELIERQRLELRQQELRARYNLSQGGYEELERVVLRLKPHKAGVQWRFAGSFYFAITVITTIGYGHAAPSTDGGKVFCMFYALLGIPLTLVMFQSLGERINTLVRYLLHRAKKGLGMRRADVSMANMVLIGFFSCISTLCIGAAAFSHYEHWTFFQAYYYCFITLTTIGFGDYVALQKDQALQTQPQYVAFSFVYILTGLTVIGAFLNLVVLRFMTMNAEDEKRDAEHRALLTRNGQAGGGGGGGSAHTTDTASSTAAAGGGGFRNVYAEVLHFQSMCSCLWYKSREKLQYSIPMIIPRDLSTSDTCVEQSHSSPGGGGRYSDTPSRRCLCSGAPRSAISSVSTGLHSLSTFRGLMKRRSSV

Nonstructural protein 1 = Nonstructural protein 1 (Influenza A virus, UniProt Q194T2); assay type: functional, Influenza A virus (A/California/07/2009(H1N1))
Nonstructural protein 1, sequence (Q194T2 whole entry): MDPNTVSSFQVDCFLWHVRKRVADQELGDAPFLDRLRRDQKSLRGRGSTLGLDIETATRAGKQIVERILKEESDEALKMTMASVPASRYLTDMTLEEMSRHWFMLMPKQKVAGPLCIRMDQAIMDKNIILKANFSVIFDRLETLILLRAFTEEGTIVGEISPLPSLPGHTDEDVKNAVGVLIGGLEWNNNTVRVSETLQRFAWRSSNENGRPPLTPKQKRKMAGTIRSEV

INS1 = assay: beta cell apoptosis inhibitors, cytokine rescue, dose response, luminescence, retest (AID 449756); assay type: functional, cell-based; conditions: Rattus norvegicus;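 also: cell death triggered by IL-1 beta plus TNF-alpha plus IFN-gamma mixture; protective hits raise ATP signal compared with cytokine alone wells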
Cytochrome P450 3A4 = Cytochrome P450 3A4 (Homo sapiens, UniProt P08684);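 also: CYP3A4 tested as one member of a cytochrome P450 panel screen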
Cytochrome P450 3A4, sequence (P08684 whole entry): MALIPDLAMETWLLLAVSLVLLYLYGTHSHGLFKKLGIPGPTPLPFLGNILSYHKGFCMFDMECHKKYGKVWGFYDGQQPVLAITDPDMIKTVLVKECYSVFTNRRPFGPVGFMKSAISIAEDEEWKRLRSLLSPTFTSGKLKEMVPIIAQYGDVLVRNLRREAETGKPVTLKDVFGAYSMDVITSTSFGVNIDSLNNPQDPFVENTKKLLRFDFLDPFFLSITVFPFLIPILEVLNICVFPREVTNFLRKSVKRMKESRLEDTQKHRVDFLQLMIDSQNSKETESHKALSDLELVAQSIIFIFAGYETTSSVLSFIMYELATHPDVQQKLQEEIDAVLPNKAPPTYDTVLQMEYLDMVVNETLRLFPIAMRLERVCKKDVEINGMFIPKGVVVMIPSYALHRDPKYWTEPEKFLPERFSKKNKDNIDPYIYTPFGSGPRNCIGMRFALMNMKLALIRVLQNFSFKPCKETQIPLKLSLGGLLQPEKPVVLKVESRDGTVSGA

fMet-Leu-Phe receptor = fMet-Leu-Phe receptor (Homo sapiens, UniProt P21462); assay: FPR ligands, dose response (AID 519); assay type: functional
fMet-Leu-Phe receptor, sequence (P21462 whole entry): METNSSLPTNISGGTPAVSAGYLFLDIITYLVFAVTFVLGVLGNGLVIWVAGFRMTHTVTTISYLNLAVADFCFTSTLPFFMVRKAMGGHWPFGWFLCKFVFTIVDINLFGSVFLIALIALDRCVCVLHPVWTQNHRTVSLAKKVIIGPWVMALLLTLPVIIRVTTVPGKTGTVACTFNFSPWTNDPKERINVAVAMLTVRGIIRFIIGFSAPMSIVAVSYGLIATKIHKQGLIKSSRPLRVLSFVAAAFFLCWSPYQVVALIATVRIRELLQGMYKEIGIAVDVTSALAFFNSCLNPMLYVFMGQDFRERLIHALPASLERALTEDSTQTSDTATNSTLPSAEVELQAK

[33] = T. cruzi growth inhibition in host cells, dose response, cell-based, plate reader, dry powder, set 2 (AID 652275); assay type: functional
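For EC50 in this document: agonist potency from rise in intracellular calcium fluorescence.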

## COc1cc(CN2CCc3ccccc3C2)ccc1O
[1]
  AC50: 2.65 µM (active)
Cells [2]
  EC50: > 29.9 µM (inactive)
[3]
  AC50: 0.912 µM (active)
[4]
  AC50: 5.64 µM (active)
[5]
  AC50: 24.9 µM (active)
[6]
  AC50: 3.71 µM (active)
[7]
  AC50: 2.93 µM (active)
Cells [8]
  IC50: > 29.9 µM (inactive)

## C[C@@H]1CN([C@@H](C)CO)S(=O)(=O)c2ccc(C#Cc3ccccc3F)cc2O[C@@H]1CN(C)C(=O)Cc1ccncc1
[9]
  AC50: 5.41 µM (active)
[10]
  AC50: 45 µM (active)
[11]
  AC50: 6.5 µM (active)

## CN1c2ccc(-c3cccc(C#N)c3)cc2[C@H]2[C@H](CCN2S(=O)(=O)c2ccccc2F)[C@H]1CO
[12]
  AC50: 3.57 µM (active)
[13]
  AC50: 38.1 µM (active)
[14]
  AC50: 28.2 µM (active)
[15]
  AC50: 16.6 µM (active)
Paired box protein Pax-8
  AC50: 4.87 µM (active)
[16]
  AC50: 23.4 µM (active)
[17]
  AC50: 33.3 µM (active)

## N#Cc1ccc(-c2ccc([C@@H]3[C@@H]4CN(C(=O)C5CC5)C[C@H]3N4)cc2)cc1
[18]
  AC50: 0.376 µM (active)
[12]
  AC50: < 0.3 µM (active)
[13]
  AC50: 7.18 µM (active)
[19]
  AC50: 0.821 µM (active)
[20]
  AC50: 1.7 µM (active)
[21]
  AC50: 1.22 µM (active)
[22]
  AC50: 0.328 µM (active)
[15]
  AC50: 7.05 µM (active)
Paired box protein Pax-8
  AC50: 1.16 µM (active)
[16]
  AC50: 19.9 µM (active)
[23]
  AC50: 1.97 µM (active)
[24]
  AC50: 0.449 µM (active)
[25]
  AC50: 40.5 µM (active)
[26]
  AC50: 1.41 µM (active)
[17]
  AC50: 4.73 µM (active)
[27]
  AC50: 0.684 µM (active)

## O=C(O)C1CCCCC1C(=O)N1CCc2ccccc2C1CN1C(=O)Cc2ccccc2C1=O (centres undefined)
[28]
  AC50: > 52 µM (inactive)

## C[C@H](CO)N1C[C@H](C)[C@H](CN(C)C(=O)Nc2ccccc2)Oc2ncccc2C1=O
[29]
  AC50: 12.3 µM (active)

## CCCCOc1cccc(NC(=O)c2coc(=O)c(Br)c2)c1
[30]
  IC50: 22.8 µM (inactive)
[31]
  IC50: 32.9 µM (inactive)

## COc1ccc(C(=O)Nc2cccc(NC(=O)c3ccccc3)c2)cc1
[32]
  IC50: 4.46 µM (active)

## Nc1ccc(Nc2ccccc2)cc1
Nonstructural protein 1
  IC50: 45.3 µM (active)
INS1
  AC50: 7.64 µM (active)
Cytochrome P450 3A4
  AC50: 20 µM (inconclusive)
fMet-Leu-Phe receptor
  Ki: > 66.7 µM (inactive)

## O=C(Cn1ccnc1[N+](=O)[O-])NCc1ccccc1 [BENZNIDAZOLE]
[33]
  AC50: 0.153 µM (active)
